According to ChEMBL document CHEMBL1127385, “Synthesis and diuretic activity of alkyl- and arylguanidine analogs of N,N'-dicyclohexyl-4-morpholinecarboxamidine in rats and dogs” (J Med Chem, 1994):
Values belong to the compound of their own block, whether it stands above or below them.

Columns and labels:
Canis familiaris [1] = assay: Total electrolytic excretion of potassium in urine of dogs after peroral administration of 3.76 uM/Kg of drug; assay type: ADME, organism-based, Canis lupus familiaris; details: dog, in vivo, po
Rattus norvegicus [2] = assay: Total electrolytic excretion of potassium in urine of rats after peroral administration of 0 uM/Kg of drug; assay type: ADME, organism-based; details: in vivo, po
Rattus norvegicus [3] = assay: Total electrolytic excretion of potassium in urine of rats after peroral administration of 11.3 uM/Kg of drug; assay type: ADME, organism-based; details: in vivo, po
Rattus norvegicus [4] = assay: Total electrolytic excretion of chlorine in urine of rats after peroral administration of 3.76 uM/Kg of drug; assay type: ADME, organism-based; details: in vivo, po
Rattus norvegicus [5] = assay: Total electrolytic excretion of chlorine in urine of rats after peroral administration of 37.6 uM/Kg of drug; assay type: ADME, organism-based; details: in vivo, po
Rattus norvegicus [6] = assay: Total electrolytic excretion of chlorine in urine of rats after peroral administration of 0 uM/Kg of drug; assay type: ADME, organism-based; details: in vivo, po
Canis familiaris [7] = assay: Total electrolytic excretion of sodium in urine of dogs after peroral administration of 3.76 uM/Kg of drug; assay type: ADME, organism-based, Canis lupus familiaris; details: dog, in vivo, po
Rattus norvegicus [8] = assay: Total electrolytic excretion of sodium in urine of rats after peroral administration of 0 uM/Kg of drug; assay type: ADME, organism-based; details: in vivo, po
Rattus norvegicus [9] = assay: Total electrolytic excretion of sodium in urine of rats after peroral administration of 1.13 uM/Kg of drug; assay type: ADME, organism-based; details: in vivo, po
Rattus norvegicus [10] = assay: Total electrolytic excretion of sodium in urine of rats after peroral administration of 11.3 uM/Kg of drug; assay type: ADME, organism-based; details: in vivo, po
Rattus norvegicus [11] = assay: Total electrolytic excretion of potassium in urine of rats after peroral administration of 37.6 uM/Kg of drug; assay type: ADME, organism-based; details: in vivo, po
Rattus norvegicus [12] = assay: Total electrolytic excretion of chlorine in urine of rats after peroral administration of 11.3 uM/Kg of drug; assay type: ADME, organism-based; details: in vivo, po
Rattus norvegicus [13] = assay: Total electrolytic excretion of chlorine in urine of rats after peroral administration of 113 uM/Kg of drug; assay type: ADME, organism-based; details: in vivo, po
Canis familiaris [14] = assay: Total electrolytic excretion of chlorine in urine of dogs after peroral administration of 3.76 uM/Kg of drug; assay type: ADME, organism-based, Canis lupus familiaris; details: dog, in vivo, po
Rattus norvegicus [15] = assay: Total electrolytic excretion of potassium in urine of rats after peroral administration of 113 uM/Kg of drug; assay type: ADME, organism-based; details: in vivo, po
Rattus norvegicus [16] = assay: Total electrolytic excretion of potassium in urine of rats after peroral administration of 3.76 uM/Kg of drug; assay type: ADME, organism-based; details: in vivo, po
Rattus norvegicus [17] = assay: Tested for the diuretic activity by measuring the urinary volume after peroral administering 37.6 uM/Kg of drug in rats; assay type: ADME, organism-based, Urine; details: in vivo, po
Rattus norvegicus [18] = assay: Total electrolytic excretion of sodium in urine of rats after peroral administration of 37.6 uM/Kg of drug; assay type: ADME, organism-based; details: in vivo, po
Rattus norvegicus [19] = assay: Total electrolytic excretion of chlorine in urine of rats after peroral administration of 1.13 uM/Kg of drug; assay type: ADME, organism-based; details: in vivo, po
Rattus norvegicus [20] = assay: Tested for the diuretic activity by measuring the urinary volume after peroral administering 0 uM/Kg of drug in rats; assay type: ADME, organism-based, Urine; details: in vivo, po
Rattus norvegicus [21] = assay: Tested for the diuretic activity by measuring the urinary volume after peroral administering 1.13 uM/Kg of drug in rats; assay type: ADME, organism-based, Urine; details: in vivo, po
Rattus norvegicus [22] = assay: Tested for the diuretic activity by measuring the urinary volume after peroral administering 11.3 uM/Kg of drug in rats; assay type: ADME, organism-based, Urine; details: in vivo, po
Rattus norvegicus [23] = assay: Tested for the diuretic activity by measuring the urinary volume after peroral administering 113 uM/Kg of drug in rats; assay type: ADME, organism-based, Urine; details: in vivo, po
Canis familiaris [24] = assay: Tested for the diuretic activity by measuring the urinary volume after peroral administering 3.76 uM/Kg of drug in dogs; assay type: ADME, organism-based, Canis lupus familiaris, Urine; details: dog, in vivo, po
Rattus norvegicus [25] = assay: Tested for the diuretic activity by measuring the urinary volume after peroral administering 3.76 uM/Kg of drug in rats; assay type: ADME, organism-based, Urine; details: in vivo, po
Canis familiaris [26] = assay: Ratio of Total electrolytic excretion of sodium and potassium in urine of dogs after peroral administration of 0 uM/Kg of drug; assay type: ADME, organism-based, Canis lupus familiaris; details: dog, in vivo, po
Canis familiaris [27] = assay: Ratio of Total electrolytic excretion of sodium and potassium in urine of dogs after peroral administration of 1.13 uM/Kg of drug; assay type: ADME, organism-based, Canis lupus familiaris; details: dog, in vivo, po
Canis familiaris [28] = assay: Ratio of Total electrolytic excretion of sodium and potassium in urine of dogs after peroral administration of 11.3 uM/Kg of drug; assay type: ADME, organism-based, Canis lupus familiaris; details: dog, in vivo, po
Canis familiaris [29] = assay: Ratio of Total electrolytic excretion of sodium and potassium in urine of dogs after peroral administration of 113 uM/Kg of drug; assay type: ADME, organism-based, Canis lupus familiaris; details: dog, in vivo, po
Canis familiaris [30] = assay: Ratio of Total electrolytic excretion of sodium and potassium in urine of dogs after peroral administration of 37.6 uM/Kg of drug; assay type: ADME, organism-based, Canis lupus familiaris; details: dog, in vivo, po
Rattus norvegicus [31] = assay: Total electrolytic excretion of sodium in urine of rats after peroral administration of 113 uM/Kg of drug; assay type: ADME, organism-based; details: in vivo, po
Rattus norvegicus [32] = assay: Total electrolytic excretion of sodium in urine of rats after peroral administration of 3.76 uM/Kg of drug; assay type: ADME, organism-based; details: in vivo, po
Rattus norvegicus [33] = assay: Total electrolytic excretion of potassium in urine of rats after peroral administration of 1.13 uM/Kg of drug; assay type: ADME, organism-based; details: in vivo, po
Rattus norvegicus [34] = assay: Total electrolytic excretion of chlorine in urine of rats after peroral administration of 259 uM/Kg of drug; assay type: ADME, organism-based; details: in vivo, po
Rattus norvegicus [35] = assay: Total electrolytic excretion of potassium in urine of rats after peroral administration of 25.9 uM/Kg of drug; assay type: ADME, organism-based; details: in vivo, po
Rattus norvegicus [36] = assay: Total electrolytic excretion of potassium in urine of rats after peroral administration of 259 uM/Kg of drug; assay type: ADME, organism-based; details: in vivo, po
Rattus norvegicus [37] = assay: Total electrolytic excretion of chlorine in urine of rats after peroral administration of 77.5 uM/Kg of drug; assay type: ADME, organism-based; details: in vivo, po
Rattus norvegicus [38] = assay: Total electrolytic excretion of potassium in urine of rats after peroral administration of 77.5 uM/Kg of drug; assay type: ADME, organism-based; details: in vivo, po
Rattus norvegicus [39] = assay: Tested for the diuretic activity by measuring the urinary volume after peroral administering 77.5 uM/Kg of drug in rats; assay type: ADME, organism-based, Urine; details: in vivo, po
Rattus norvegicus [40] = assay: Total electrolytic excretion of sodium in urine of rats after peroral administration of 25.9 uM/Kg of drug; assay type: ADME, organism-based; details: in vivo, po
Rattus norvegicus [41] = assay: Total electrolytic excretion of sodium in urine of rats after peroral administration of 259 uM/Kg of drug; assay type: ADME, organism-based; details: in vivo, po
Rattus norvegicus [42] = assay: Tested for the diuretic activity by measuring the urinary volume after peroral administering 25.9 uM/Kg of drug in rats; assay type: ADME, organism-based, Urine; details: in vivo, po
Rattus norvegicus [43] = assay: Tested for the diuretic activity by measuring the urinary volume after peroral administering 259 uM/Kg of drug in rats; assay type: ADME, organism-based, Urine; details: in vivo, po
Rattus norvegicus [44] = assay: Ratio of Total electrolytic excretion of sodium and potassium in urine of rats after peroral administration of 25.9 uM/Kg of drug; assay type: ADME, organism-based; details: in vivo, po
Rattus norvegicus [45] = assay: Ratio of Total electrolytic excretion of sodium and potassium in urine of rats after peroral administration of 259 uM/Kg of drug; assay type: ADME, organism-based; details: in vivo, po
Rattus norvegicus [46] = assay: Ratio of Total electrolytic excretion of sodium and potassium in urine of rats after peroral administration of 77.7 uM/Kg of drug; assay type: ADME, organism-based; details: in vivo, po
Rattus norvegicus [47] = assay: Total electrolytic excretion of chlorine in urine of rats after peroral administration of 25.9 uM/Kg of drug; assay type: ADME, organism-based; details: in vivo, po
Rattus norvegicus [48] = assay: Total electrolytic excretion of sodium in urine of rats after peroral administration of 77.5 uM/Kg of drug; assay type: ADME, organism-based; details: in vivo, po

Compound: N=C(N)NC(=O)c1nc(Cl)c(N)nc1N [AMILORIDE]
Excretion K+ (Canis familiaris [1]): 0.4 m equiv
Excretion K+ (Rattus norvegicus [2]): 0.36 m equiv
Excretion K+ (Rattus norvegicus [3]): 0.07 m equiv
Excretion Cl- (Rattus norvegicus [4]): 1.29 m equiv
Excretion Cl- (Rattus norvegicus [5]): 1.86 m equiv
Excretion Cl- (Rattus norvegicus [6]): 0.78 m equiv
Excretion Na+ (Canis familiaris [7]): 9.5 m equiv
Excretion Na+ (Rattus norvegicus [8]): 0.73 m equiv
Excretion Na+ (Rattus norvegicus [9]): 1.33 m equiv
Excretion Na+ (Rattus norvegicus [10]): 2.17 m equiv
Excretion K+ (Rattus norvegicus [11]): 0.05 m equiv
Excretion Cl- (Rattus norvegicus [12]): 1.73 m equiv
Excretion Cl- (Rattus norvegicus [13]): 1.43 m equiv
Excretion Cl- (Canis familiaris [14]): 4.3 m equiv
Excretion K+ (Rattus norvegicus [15]): 0.05 m equiv
Excretion K+ (Rattus norvegicus [16]): 0.1 m equiv
V (Rattus norvegicus [17]): 13.9 mL
Excretion Na+ (Rattus norvegicus [18]): 2.27 m equiv
Excretion Cl- (Rattus norvegicus [19]): 1.14 m equiv
V (Rattus norvegicus [20]): 4.8 mL
V (Rattus norvegicus [21]): 7.2 mL
V (Rattus norvegicus [22]): 12.6 mL
V (Rattus norvegicus [23]): 9.4 mL
V (Canis familiaris [24]): 59 mL
V (Rattus norvegicus [25]): 9.1 mL
Ratio (Canis familiaris [26]): 2 [Na+]/[K+]
Ratio (Canis familiaris [27]): 7.8 [Na+]/[K+]
Ratio (Canis familiaris [28]): 30.8 [Na+]/[K+]
Ratio (Canis familiaris [29]): 38.8 [Na+]/[K+]
Ratio (Canis familiaris [30]): 45.2 [Na+]/[K+]
Excretion Na+ (Rattus norvegicus [31]): 1.77 m equiv
Excretion Na+ (Rattus norvegicus [32]): 1.65 m equiv
Excretion K+ (Rattus norvegicus [33]): 0.17 m equiv

Excretion Cl- (Rattus norvegicus [34]): 1.05 m equiv
Excretion K+ (Rattus norvegicus [35]): 0.26 m equiv
Excretion K+ (Rattus norvegicus [36]): 0.16 m equiv
Excretion Cl- (Rattus norvegicus [37]): 1.99 m equiv
Excretion K+ (Rattus norvegicus [38]): 0.27 m equiv
V (Rattus norvegicus [39]): 11.8 mL
Excretion Na+ (Rattus norvegicus [40]): 1.45 m equiv
Excretion Na+ (Rattus norvegicus [41]): 1.17 m equiv
V (Rattus norvegicus [42]): 8.7 mL
V (Rattus norvegicus [43]): 5 mL
Ratio (Rattus norvegicus [44]): 5.5
Ratio (Rattus norvegicus [45]): 7.5
Ratio (Rattus norvegicus [46]): 7.1
Excretion Cl- (Rattus norvegicus [47]): 1.5 m equiv
Excretion Na+ (Rattus norvegicus [48]): 1.89 m equiv
Compound: C1CCCC(/N=C(/NC2CCCCCCC2)N2CCOCC2)CCC1
